Test results: US5593984A, “Cephalosporin derivatives” (Yuhan Corporation, priority 1992, dated 1997)
In brackets after ≈: the same amount, converted by molar mass. Read-outs that look alike come from different tables or passages of the source.

Experiments:
B. subtilis ATCC 6633 = test: MIC by agar dilution, B. subtilis ATCC 6633; assay type: cell-based; conditions: Bacillus subtilis, ATCC6633, 17 h, read-out: Minimal Inhibitory Concentration (MIC)
Outline: (§1)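 Growth inhibition was scored after 17±1 hours at 35°-37° C. on Mueller-Hinton agar bearing twofold compound dilutions, with strains seeded at 10^6 CFU per ml; lowest inhibiting level taken as MIC.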

Staph. aureus ATCC 6538P = test: MIC by agar dilution, Staph. aureus ATCC 6538P; assay type: cell-based; conditions: Staphylococcus aureus, ATCC6538P, 17 h, read-out: Minimal Inhibitory Concentration (MIC)
Outline: as §1

Staph. aureus Smith = test: MIC by agar dilution, Staph. aureus Smith; assay type: cell-based; conditions: Staphylococcus aureus, 17 h, Mueller-Hinton agar, read-out: Minimal Inhibitory Concentration (MIC)
Outline: as §1

Staph. aureus C-57 = test: MIC by agar dilution, Staph. aureus C-57; assay type: cell-based; conditions: Staphylococcus aureus, C57, 17 h, Mueller-Hinton agar, read-out: Minimal Inhibitory Concentration (MIC)
Outline: as §1

Staph. aureus C-5113 = test: MIC by agar dilution, Staph. aureus C-5113; assay type: cell-based; conditions: Staphylococcus aureus, C5113, 17 h, Mueller-Hinton agar, read-out: Minimal Inhibitory Concentration (MIC)
Outline: as §1

Staph. aureus C-5216 = test: MIC by agar dilution, Staph. aureus C-5216; assay type: cell-based; conditions: Staphylococcus aureus, C5216, 17 h, Mueller-Hinton agar, read-out: Minimal Inhibitory Concentration (MIC)
Outline: as §1

[1] = test system: S. epidermidis ATCC 12228; test: MIC by agar dilution, S. epidermidis ATCC 12228; assay type: cell-based; conditions: Staphylococcus epidermidis, ATCC12228, 17 h, read-out: Minimal Inhibitory Concentration (MIC)
Outline: as §1

Ent. aerogenes IFO 12979 = test: MIC by agar dilution, Ent. aerogenes IFO 12979; assay type: cell-based; conditions: Klebsiella aerogenes, IFO12979, 17 h, Mueller-Hinton agar, read-out: Minimal Inhibitory Concentration (MIC)
Outline: as §1

Ent. cloacae IFO 13535 = test: MIC by agar dilution, Ent. cloacae IFO 13535; assay type: cell-based; conditions: Enterobacter cloacae, IFO13535, 17 h, read-out: Minimal Inhibitory Concentration (MIC)
Outline: as §1

E. coli NIHJ JC-2 = test: MIC by agar dilution, E. coli NIHJ JC-2; assay type: cell-based; conditions: Escherichia coli, NIHJJC2, 17 h, read-out: Minimal Inhibitory Concentration (MIC)
Outline: as §1

E. coli No. 29 = test: MIC by agar dilution, E. coli No. 29; assay type: cell-based; conditions: Escherichia coli, read-out: Minimal Inhibitory Concentration (MIC)
Outline: as §1

E. coli DY-1 = test: MIC by agar dilution, E. coli DY-1; assay type: cell-based; conditions: Escherichia coli, DY1, 17 h, read-out: Minimal Inhibitory Concentration (MIC)
Outline: as §1

K. pneumoniae NCTC 9632 = test: MIC by agar dilution, K. pneumoniae NCTC 9632; assay type: cell-based; conditions: Klebsiella pneumoniae, NCTC9632, 17 h, read-out: Minimal Inhibitory Concentration (MIC)
Outline: as §1

M. morganii DY-1 = test: MIC by agar dilution, M. morganii DY-1; assay type: cell-based; conditions: Morganella morganii, DY1, 17 h, read-out: Minimal Inhibitory Concentration (MIC)
Outline: as §1

[2] = test system: Ps. aeruginosa ATCC 10145; test: MIC by agar dilution, Ps. aeruginosa ATCC 10145; assay type: cell-based; conditions: Pseudomonas aeruginosa, ATCC10145, 17 h, Mueller-Hinton agar, read-out: Minimal Inhibitory Concentration (MIC)
Outline: as §1

[3] = test system: Ps. aeruginosa NCTC 10490; test: MIC by agar dilution, Ps. aeruginosa NCTC 10490; assay type: cell-based; conditions: Pseudomonas aeruginosa, NCTC10490, 17 h, Mueller-Hinton agar, read-out: Minimal Inhibitory Concentration (MIC)
Outline: as §1

Ps. aeruginosa DY-2 = test: MIC by agar dilution, Ps. aeruginosa DY-2; assay type: cell-based; conditions: Pseudomonas aeruginosa, DY2, 17 h, read-out: Minimal Inhibitory Concentration (MIC)
Outline: as §1

P. vulgaris NCTC 8313 = test: MIC by agar dilution, P. vulgaris NCTC 8313; assay type: cell-based; conditions: Proteus vulgaris, NCTC8313, 17 h, read-out: Minimal Inhibitory Concentration (MIC)
Outline: as §1

Prov. stuartii IFO 12930 = test: MIC by agar dilution, Prov. stuartii IFO 12930; assay type: cell-based; conditions: Providencia stuartii, IFO12930, 17 h, Mueller-Hinton agar, read-out: Minimal Inhibitory Concentration (MIC)
Outline: as §1

[4] = test system: Ser. marcescens IFO 12648; test: MIC by agar dilution, Ser. marcescens IFO 12648; assay type: cell-based; conditions: Serratia marcescens, IFO12648, 17 h, read-out: Minimal Inhibitory Concentration (MIC)
Outline: as §1

[5] = test system: Gram-negative bacteria such as Pseudomonas aeruginosa; conditions: background art; cited from earlier work
[6] = test system: Gram-positive bacteria, in particular, Staphylococcus species; conditions: background art; cited from earlier work
[7] = B. subtilis ATCC 6633, agar dilution, Mueller-Hinton agar
[8] = Staph. aureus ATCC 6538P, agar dilution, Mueller-Hinton agar
[9] = S. epidermidis ATCC 12228, agar dilution, Mueller-Hinton agar
[10] = Ent. cloacae IFO 13535, agar dilution, Mueller-Hinton agar
[11] = E. coli NIHJ JC-2, agar dilution, Mueller-Hinton agar
[12] = 17 h, E. coli No. 29, agar dilution, Mueller-Hinton agar
[13] = E. coli DY-1, agar dilution, Mueller-Hinton agar
[14] = K. pneumoniae NCTC 9632, agar dilution, Mueller-Hinton agar
[15] = M. morganii DY-1, agar dilution, Mueller-Hinton agar
[16] = Ps. aeruginosa DY-2, agar dilution, Mueller-Hinton agar
[17] = P. vulgaris NCTC 8313, agar dilution, Mueller-Hinton agar
[18] = Ser. marcescens IFO 12648, agar dilution, Mueller-Hinton agar

Structure (SMILES): CC(C)(O/N=C(\C(=O)N[C@@H]1C(=O)N2C(C(=O)[O-])=C(C[n+]3ccccc3)CS[C@H]12)c1csc(N)n1)C(=O)O [CAZ, Ceftazidime, reference compound]
- MIC (B. subtilis ATCC 6633): 1.56 µg/mL (≈ 2.85 µM)
- MIC (Staph. aureus ATCC 6538P): 1.56 µg/mL (≈ 2.85 µM)
- MIC (Staph. aureus Smith): 6.25 µg/mL (≈ 11.4 µM)
- MIC (Staph. aureus C-57): 100 µg/mL (≈ 183 µM)
- MIC (Staph. aureus C-5113): 25 µg/mL (≈ 45.7 µM)
- MIC (Staph. aureus C-5216): 25 µg/mL (≈ 45.7 µM)
- MIC [1]: 0.78 µg/mL (≈ 1.43 µM)
- MIC (Ent. aerogenes IFO 12979): 0.05 µg/mL (≈ 0.0915 µM)
- MIC (Ent. cloacae IFO 13535): 1.56 µg/mL (≈ 2.85 µM)
- MIC (E. coli NIHJ JC-2): 0.2 µg/mL (≈ 0.366 µM)
- MIC (E. coli No. 29; NO.29, 17 h): 0.1 µg/mL (≈ 0.183 µM)
- MIC (E. coli DY-1): 0.05 µg/mL (≈ 0.0915 µM)
- MIC (K. pneumoniae NCTC 9632): 0.05 µg/mL (≈ 0.0915 µM)
- MIC (M. morganii DY-1): 0.1 µg/mL (≈ 0.183 µM)
- MIC [2]: 0.78 µg/mL (≈ 1.43 µM)
- MIC [3]: 0.1 µg/mL (≈ 0.183 µM)
- MIC (Ps. aeruginosa DY-2): 1.56 µg/mL (≈ 2.85 µM)
- MIC (P. vulgaris NCTC 8313): 0.025 µg/mL (≈ 0.0457 µM)
- MIC (Prov. stuartii IFO 12930): 0.025 µg/mL (≈ 0.0457 µM)
- MIC [4]: 0.025 µg/mL (≈ 0.0457 µM)
- antibacterial activities against Gram-negative bacteria such as Pseudomonas aeruginosa [5]: superior antibacterial activities
- antibacterial activities against Gram-positive bacteria, in particular Staphylococcus species [6]: relatively inferior antibacterial activities

Structure (SMILES): CO/N=C(\C(=O)N[C@@H]1C(=O)N2C(C(=O)O)=C(COC(C)=O)CS[C@H]12)c1csc(N)n1 [CTX, Cefotaxime, reference compound]
- MIC (B. subtilis ATCC 6633; [7]): 0.1 µg/mL (≈ 0.22 µM)
- MIC (Staph. aureus ATCC 6538P; [8]): 0.78 µg/mL (≈ 1.71 µM)
- MIC (Staph. aureus Smith): 1.56 µg/mL (≈ 3.43 µM)
- MIC (Staph. aureus C-57): 100 µg/mL (≈ 220 µM)
- MIC (Staph. aureus C-5113): 3.13 µg/mL (≈ 6.87 µM)
- MIC (Staph. aureus C-5216): 1.56 µg/mL (≈ 3.43 µM)
- MIC [1, 9]: 0.1 µg/mL (≈ 0.22 µM)
- MIC (Ent. aerogenes IFO 12979): 0.025 µg/mL (≈ 0.0549 µM)
- MIC (Ent. cloacae IFO 13535; [10]): 0.78 µg/mL (≈ 1.71 µM)
- MIC (E. coli NIHJ JC-2; [11]): 0.05 µg/mL (≈ 0.11 µM)
- MIC (E. coli No. 29; [12]): ≤ 0.006 µg/mL
- MIC (E. coli DY-1; [13]): ≤ 0.006 µg/mL
- MIC (K. pneumoniae NCTC 9632; [14]): 0.025 µg/mL (≈ 0.0549 µM)
- MIC (M. morganii DY-1; [15]): 0.025 µg/mL (≈ 0.0549 µM)
- MIC [2]: 6.25 µg/mL (≈ 13.7 µM)
- MIC [3]: 0.78 µg/mL (≈ 1.71 µM)
- MIC (Ps. aeruginosa DY-2; [16]): 12.5 µg/mL (≈ 27.4 µM)
- MIC (P. vulgaris NCTC 8313; [17]): ≤ 0.006 µg/mL
- MIC (Prov. stuartii IFO 12930): ≤ 0.006 µg/mL
- MIC [4, 18]: 0.05 µg/mL (≈ 0.11 µM)
- antibacterial activities against Gram-negative bacteria such as Pseudomonas aeruginosa [5]: less effective antibacterial activities
- antibacterial activities against Gram-positive bacteria, in particular Staphylococcus species [6]: have antibacterial activities against Staphylococcus species

Structure (SMILES): CO/N=C(\C(=O)N[C@@H]1C(=O)N2C(C(=O)[O-])=C(C[n+]3ccn4c(CO)ccc4c3C)CS[C@H]12)c1nc(N)sc1Cl [Ex. 58, 7-β-[(Z)-2-(2-amino-5-chlorothiazol-4-yl)-2-methoxyiminoacetamido]-3-(6-hydroxymethyl-1-methylpyrrolo[1,2-a]-pyrazinium-2-yl)methyl-3-cephem-4-carboxylate]
- MIC (B. subtilis ATCC 6633; [7]): 0.2 µg/mL (≈ 0.338 µM)
- MIC (Staph. aureus ATCC 6538P; [8]): 0.05 µg/mL (≈ 0.0845 µM)
- MIC (Staph. aureus Smith): 0.39 µg/mL (≈ 0.659 µM)
- MIC (Staph. aureus C-57): 3.13 µg/mL (≈ 5.29 µM)
- MIC (Staph. aureus C-5113): 0.78 µg/mL (≈ 1.32 µM)
- MIC (Staph. aureus C-5216): 0.78 µg/mL (≈ 1.32 µM)
- MIC [1, 9]: 0.1 µg/mL (≈ 0.169 µM)
- MIC (Ent. aerogenes IFO 12979): 0.1 µg/mL (≈ 0.169 µM)
- MIC (Ent. cloacae IFO 13535; [10]): 0.78 µg/mL (≈ 1.32 µM)
- MIC (E. coli NIHJ JC-2; [11]): 0.2 µg/mL (≈ 0.338 µM)
- MIC (E. coli No. 29; [12]): 0.05 µg/mL (≈ 0.0845 µM)
- MIC (E. coli DY-1; [13]): 0.05 µg/mL (≈ 0.0845 µM)
- MIC (K. pneumoniae NCTC 9632; [14]): 0.1 µg/mL (≈ 0.169 µM)
- MIC (M. morganii DY-1; [15]): 0.39 µg/mL (≈ 0.659 µM)
- MIC [2]: 1.56 µg/mL (≈ 2.63 µM)
- MIC [3]: 0.78 µg/mL (≈ 1.32 µM)
- MIC (Ps. aeruginosa DY-2; [16]): 3.13 µg/mL (≈ 5.29 µM)
- MIC (P. vulgaris NCTC 8313; [17]): 0.012 µg/mL (≈ 0.0203 µM)
- MIC (Prov. stuartii IFO 12930): 0.012 µg/mL (≈ 0.0203 µM)
- MIC [4, 18]: 0.2 µg/mL (≈ 0.338 µM)

Structure (SMILES): CO/N=C(\C(=O)N[C@@H]1C(=O)N2C(C(=O)[O-])=C(C[n+]3ccn4c(Br)ccc4c3C)CS[C@H]12)c1nsc(N)n1 [Ex. 59, 7-β-[(Z)-2-(5-amino-1,2,4-thiadiazol-3-yl)-2-methoxyiminoacetamido]-3-(6-bromo-1-methylpyrrolo[1,2-a]pyrazinium-2-yl)methyl-3-cephem-4-carboxylate]
- MIC (B. subtilis ATCC 6633; [7]): 0.1 µg/mL (≈ 0.165 µM)
- MIC (Staph. aureus ATCC 6538P; [8]): 0.1 µg/mL (≈ 0.165 µM)
- MIC (Staph. aureus Smith): 0.39 µg/mL (≈ 0.642 µM)
- MIC (Staph. aureus C-57): 6.25 µg/mL (≈ 10.3 µM)
- MIC (Staph. aureus C-5113): 0.78 µg/mL (≈ 1.28 µM)
- MIC (Staph. aureus C-5216): 0.78 µg/mL (≈ 1.28 µM)
- MIC [1, 9]: 0.05 µg/mL (≈ 0.0823 µM)
- MIC (Ent. aerogenes IFO 12979): ≤ 0.006 µg/mL
- MIC (Ent. cloacae IFO 13535; [10]): 0.2 µg/mL (≈ 0.329 µM)
- MIC (E. coli NIHJ JC-2; [11]): 0.025 µg/mL (≈ 0.0412 µM)
- MIC (E. coli No. 29; [12]): 0.012 µg/mL (≈ 0.0198 µM)
- MIC (E. coli DY-1; [13]): ≤ 0.006 µg/mL
- MIC (K. pneumoniae NCTC 9632; [14]): 0.025 µg/mL (≈ 0.0412 µM)
- MIC (M. morganii DY-1; [15]): 0.025 µg/mL (≈ 0.0412 µM)
- MIC [2]: 1.56 µg/mL (≈ 2.57 µM)
- MIC [3]: 1.56 µg/mL (≈ 2.57 µM)
- MIC (Ps. aeruginosa DY-2; [16]): 12.5 µg/mL (≈ 20.6 µM)
- MIC (P. vulgaris NCTC 8313; [17]): 0.012 µg/mL (≈ 0.0198 µM)
- MIC (Prov. stuartii IFO 12930): ≤ 0.006 µg/mL
- MIC [4, 18]: 0.025 µg/mL (≈ 0.0412 µM)
